According to ChEMBL document CHEMBL3885881, “DrugMatrix”:

Organism: Rattus norvegicus
Experiment: DrugMatrix - Regimen: Daily Repeat
Format: toxicity, organism-based, Sprague-Dawley
Design: regimen Daily Repeat, gender Male, age 6-8 weeks
Conditions: in vivo, po, route oral GAVAGE, vehicle .5 % CMC; for ABSOLUTE BASOPHIL / ABSOLUTE EOSINOPHIL / ABSOLUTE LYMPHOCYTE / ABSOLUTE MONOCYTE / ABSOLUTE SEGMENTED NEUTROPHIL / BASOPHIL / EOSINOPHIL / ERYTHROCYTE COUNT / HEMATOCRIT / HEMOGLOBIN / LEUKOCYTE COUNT / LYMPHOCYTE / MEAN CORPUSCULAR HEMOGLOBIN / MEAN CORPUSCULAR HEMOGLOBIN CONCENTRATION / MEAN CORPUSCULAR VOLUME / MONOCYTE / NEUTROPHIL / NUCLEATED RED BLOOD CELLS / PLATELET COUNT: tissue Blood; for ALANINE AMINOTRANSFERASE / ALBUMIN / ALKALINE PHOSPHATASE / ASPARTATE AMINOTRANSFERASE / BLOOD UREA NITROGEN / CARBON DIOXIDE / CHLORIDE / CHOLESTEROL / CREATINE PHOSPHOKINASE / CREATININE / GLUCOSE / LACTATE DEHYDROGENASE / LIPASE / PHOSPHORUS / POTASSIUM / SODIUM / TOTAL BILIRUBIN / TOTAL PROTEIN / URIC ACID: tissue Plasma
[1] = 100 mg/kg, 72 h, dose level Low, time 3 day
[2] = 100 mg/kg, 120 h, dose level Low, time 5 day
[3] = 2000 mg/kg, 72 h, dose level High, time 3 day
[4] = 2000 mg/kg, 120 h, dose level High, time 5 day

SMILES: C#C[C@]1(O)CC[C@H]2[C@@H]3CCC4=Cc5oncc5C[C@]4(C)[C@H]3CC[C@@]21C [DANAZOL]
- ABSOLUTE BASOPHIL [1]: 0 CELLS/uL
- ABSOLUTE EOSINOPHIL [1]: 39 CELLS/uL
- ABSOLUTE LYMPHOCYTE [1]: 10714 CELLS/uL
- ABSOLUTE MONOCYTE [1]: 124 CELLS/uL
- ABSOLUTE SEGMENTED NEUTROPHIL [1]: 1823 CELLS/uL
- BASOPHIL [1]: 0%
- EOSINOPHIL [1]: 0.33%
- ERYTHROCYTE COUNT [1]: 5.54 x10E6/uL
- HEMATOCRIT [1]: 34.17%
- HEMOGLOBIN [1]: 13.43 G/DL
- LEUKOCYTE COUNT [1]: 12.7 x10E3/uL
- LYMPHOCYTE [1]: 84.33%
- MEAN CORPUSCULAR HEMOGLOBIN [1]: 24.3 pg
- MEAN CORPUSCULAR HEMOGLOBIN CONCENTRATION [1]: 39.3 G/DL
- MEAN CORPUSCULAR VOLUME [1]: 61.77 fL
- MONOCYTE [1]: 1%
- NEUTROPHIL [1]: 14.33%
- NUCLEATED RED BLOOD CELLS [1]: 0 /100WBC
- PLATELET COUNT [1]: 1192.67 x10E3/uL
- ALANINE AMINOTRANSFERASE [1]: 44.33 u/L
- ALBUMIN [1]: 4.17 G/DL
- ALKALINE PHOSPHATASE [1]: 377 u/L
- ASPARTATE AMINOTRANSFERASE [1]: 76.33 u/L
- BLOOD UREA NITROGEN [1]: 14.67 mg/dL
- CARBON DIOXIDE [1]: 25.33 mmol/L
- CHLORIDE [1]: 102 MEQ/L
- CHOLESTEROL [1]: 55 mg/dL
- CREATINE PHOSPHOKINASE [1]: 401.33 u/L
- CREATININE [1]: 0.17 mg/dL
- GLUCOSE [1]: 163.33 mg/dL
- LACTATE DEHYDROGENASE [1]: 137 u/L
- LIPASE [1]: 10 u/L
- PHOSPHORUS [1]: 12.07 mg/dL
- POTASSIUM [1]: 6.65 MEQ/L
- SODIUM [1]: 143.7 MEQ/L
- TOTAL BILIRUBIN [1]: 0.2 mg/dL
- TOTAL PROTEIN [1]: 5.97 G/DL
- URIC ACID [1]: 1.73 mg/dL
- ABSOLUTE BASOPHIL [2]: 0 CELLS/uL
- ABSOLUTE EOSINOPHIL [2]: 63 CELLS/uL
- ABSOLUTE LYMPHOCYTE [2]: 13104.67 CELLS/uL
- ABSOLUTE MONOCYTE [2]: 130.33 CELLS/uL
- ABSOLUTE SEGMENTED NEUTROPHIL [2]: 1568.67 CELLS/uL
- BASOPHIL [2]: 0%
- EOSINOPHIL [2]: 0.33%
- ERYTHROCYTE COUNT [2]: 5.51 x10E6/uL
- HEMATOCRIT [2]: 33.67%
- HEMOGLOBIN [2]: 13.33 G/DL
- LEUKOCYTE COUNT [2]: 14.87 x10E3/uL
- LYMPHOCYTE [2]: 88%
- MEAN CORPUSCULAR HEMOGLOBIN [2]: 24.2 pg
- MEAN CORPUSCULAR HEMOGLOBIN CONCENTRATION [2]: 39.57 G/DL
- MEAN CORPUSCULAR VOLUME [2]: 61.07 fL
- MONOCYTE [2]: 1%
- NEUTROPHIL [2]: 10.67%
- NUCLEATED RED BLOOD CELLS [2]: 0 /100WBC
- PLATELET COUNT [2]: 1135.67 x10E3/uL
- ALANINE AMINOTRANSFERASE [2]: 59.67 u/L
- ALBUMIN [2]: 4.07 G/DL
- ALKALINE PHOSPHATASE [2]: 404 u/L
- ASPARTATE AMINOTRANSFERASE [2]: 88.67 u/L
- BLOOD UREA NITROGEN [2]: 15.67 mg/dL
- CARBON DIOXIDE [2]: 28 mmol/L
- CHLORIDE [2]: 99.67 MEQ/L
- CHOLESTEROL [2]: 47.67 mg/dL
- CREATINE PHOSPHOKINASE [2]: 326.33 u/L
- CREATININE [2]: 0.2 mg/dL
- GLUCOSE [2]: 144 mg/dL
- LACTATE DEHYDROGENASE [2]: 320.33 u/L
- LIPASE [2]: 9 u/L
- PHOSPHORUS [2]: 10.93 mg/dL
- POTASSIUM [2]: 6.55 MEQ/L
- SODIUM [2]: 142.4 MEQ/L
- TOTAL BILIRUBIN [2]: 0.23 mg/dL
- TOTAL PROTEIN [2]: 5.87 G/DL
- URIC ACID [2]: 1.63 mg/dL
- ABSOLUTE BASOPHIL [3]: 0 CELLS/uL
- ABSOLUTE EOSINOPHIL [3]: 36.33 CELLS/uL
- ABSOLUTE LYMPHOCYTE [3]: 8482.33 CELLS/uL
- ABSOLUTE MONOCYTE [3]: 63 CELLS/uL
- ABSOLUTE SEGMENTED NEUTROPHIL [3]: 1351.67 CELLS/uL
- BASOPHIL [3]: 0%
- EOSINOPHIL [3]: 0.33%
- ERYTHROCYTE COUNT [3]: 6.02 x10E6/uL
- HEMATOCRIT [3]: 35.6%
- HEMOGLOBIN [3]: 13.97 G/DL
- LEUKOCYTE COUNT [3]: 9.93 x10E3/uL
- LYMPHOCYTE [3]: 85.33%
- MEAN CORPUSCULAR HEMOGLOBIN [3]: 23.23 pg
- MEAN CORPUSCULAR HEMOGLOBIN CONCENTRATION [3]: 39.23 G/DL
- MEAN CORPUSCULAR VOLUME [3]: 59.17 fL
- MONOCYTE [3]: 0.67%
- NEUTROPHIL [3]: 13.67%
- NUCLEATED RED BLOOD CELLS [3]: 0 /100WBC
- PLATELET COUNT [3]: 1115.33 x10E3/uL
- ALANINE AMINOTRANSFERASE [3]: 54.67 u/L
- ALBUMIN [3]: 4.13 G/DL
- ALKALINE PHOSPHATASE [3]: 331 u/L
- ASPARTATE AMINOTRANSFERASE [3]: 125.67 u/L
- BLOOD UREA NITROGEN [3]: 18 mg/dL
- CARBON DIOXIDE [3]: 30 mmol/L
- CHLORIDE [3]: 99.67 MEQ/L
- CHOLESTEROL [3]: 51.67 mg/dL
- CREATINE PHOSPHOKINASE [3]: 222.33 u/L
- CREATININE [3]: 0.15 mg/dL
- GLUCOSE [3]: 144.67 mg/dL
- LACTATE DEHYDROGENASE [3]: 126.33 u/L
- LIPASE [3]: 10 u/L
- PHOSPHORUS [3]: 12 mg/dL
- POTASSIUM [3]: 6.6 MEQ/L
- SODIUM [3]: 143.8 MEQ/L
- TOTAL BILIRUBIN [3]: 0.17 mg/dL
- TOTAL PROTEIN [3]: 6.13 G/DL
- URIC ACID [3]: 1.7 mg/dL
- ABSOLUTE BASOPHIL [4]: 0 CELLS/uL
- ABSOLUTE EOSINOPHIL [4]: 32.33 CELLS/uL
- ABSOLUTE LYMPHOCYTE [4]: 11456 CELLS/uL
- ABSOLUTE MONOCYTE [4]: 0 CELLS/uL
- ABSOLUTE SEGMENTED NEUTROPHIL [4]: 1345 CELLS/uL
- BASOPHIL [4]: 0%
- EOSINOPHIL [4]: 0.33%
- ERYTHROCYTE COUNT [4]: 5.94 x10E6/uL
- HEMATOCRIT [4]: 35.4%
- HEMOGLOBIN [4]: 14 G/DL
- LEUKOCYTE COUNT [4]: 12.83 x10E3/uL
- LYMPHOCYTE [4]: 88.67%
- MEAN CORPUSCULAR HEMOGLOBIN [4]: 23.57 pg
- MEAN CORPUSCULAR HEMOGLOBIN CONCENTRATION [4]: 39.57 G/DL
- MEAN CORPUSCULAR VOLUME [4]: 59.5 fL
- MONOCYTE [4]: 0%
- NEUTROPHIL [4]: 11%
- NUCLEATED RED BLOOD CELLS [4]: 0 /100WBC
- PLATELET COUNT [4]: 1399.33 x10E3/uL
- ALANINE AMINOTRANSFERASE [4]: 62.67 u/L
- ALBUMIN [4]: 4.17 G/DL
- ALKALINE PHOSPHATASE [4]: 326.67 u/L
- ASPARTATE AMINOTRANSFERASE [4]: 68 u/L
- BLOOD UREA NITROGEN [4]: 18.67 mg/dL
- CARBON DIOXIDE [4]: 28.33 mmol/L
- CHLORIDE [4]: 99.33 MEQ/L
- CHOLESTEROL [4]: 45.33 mg/dL
- CREATINE PHOSPHOKINASE [4]: 147.33 u/L
- CREATININE [4]: 0.18 mg/dL
- GLUCOSE [4]: 140.67 mg/dL
- LACTATE DEHYDROGENASE [4]: 121 u/L
- LIPASE [4]: 10 u/L
- PHOSPHORUS [4]: 12.37 mg/dL
- POTASSIUM [4]: 6.84 MEQ/L
- SODIUM [4]: 145.03 MEQ/L
- TOTAL BILIRUBIN [4]: 0.2 mg/dL
- TOTAL PROTEIN [4]: 6.73 G/DL
- URIC ACID [4]: 1.6 mg/dL
